# PMC10063562, “Metabolic profiling, antioxidant, and enzyme inhibition potential of Iris pseudacorus L. from Egypt and Japan: A comparative study” (Scientific Reports, 2023)
# pIC50: −log10 of the molar value. Where two headings read alike, the source gives them in different places.
# Experiments:
# [1] = test system: protein glycation; design: method as in PMID 23270944; details: at concentration of 3 µg/mL; ref [83]; cited from earlier work
# [2] = design: method as in PMID 26799817; details: compared to trolox; ref [80]; cited from earlier work
# [3] = biological target: α-glucosidase; details: cited from earlier work
# [4] = biological target: pancreatic lipase; details: cited from earlier work
# [5] = test system: Chinese hamster lung fibroblast (V79-4) cells; design: method as in PMID 16102749; details: V79-4 cells exposed to hydrogen peroxide; ref [77]; cited from earlier work
# [6] = cited from earlier work; for antioxidant activity IC50: compared to propyl gallate, ref [78]; for free radical scavenging activity IC50: compared to trolox, ref [79]
# [7] = DPPH radical scavenging assay; details: mean ± SD, n=3
# Protocol: The antioxidant activity of the yellow flag extracts was determined using DPPH scavenging assay in accordance with Shimamura et al. with minimal adjustments. The reaction mixture in 96 well culture plate contained. […] After 20 min of incubation of the reaction mixture at 25 °C. The degree of bleaching of the violet tint of DPPH depends on the ability of I. pseudacorus extracts for hydrogen/electron donation and was measured spectrophotometrically at 520 nm of wavelength. Noteworthy, trolox (an artificial anti-oxidant agent) was used as a positive control. The percentage of antioxidant capacity of the yellow flag extracts equals to [ Ac-As/Ac ] *100 Where Ac, As represents the control absorbance and the I. pseudacorus extract absorbance, respectively. The graph was plotted and the inhibitory concentration 50 (IC50) value was calculated. DPPH and enzyme inhibitory assays were carried out in triplicates, and the values were expressed as mean ± standard deviation. For the determination of the in vitro antioxidant, tyrosinase, lipase, and α-glucosidase inhibition potential, the (IC50) was estimated from the graph plots of the dose–response curves at each sample concentration by GraphPad Prism software (San Diego, CA, USA). The IC50 was defined as the concentration of the sample required to inhibit 50% of the tested enzyme activity.
# [8] = test system: rats; details: pre-administration in rats (5 and 10 mg/kg); ref [91]; cited from earlier work
# [9] = biological target: T1, pancreatic lipase (Sus scrofa, UniProt P00591); assay: pancreatic lipase enzyme inhibition assay (4MUFO substrate); type: biochemical, porcine; details: mean ± SD, n=3
# T1 construct: purchased Sigma Aldrich, Japan
# T1 sequence (P00591 1-450): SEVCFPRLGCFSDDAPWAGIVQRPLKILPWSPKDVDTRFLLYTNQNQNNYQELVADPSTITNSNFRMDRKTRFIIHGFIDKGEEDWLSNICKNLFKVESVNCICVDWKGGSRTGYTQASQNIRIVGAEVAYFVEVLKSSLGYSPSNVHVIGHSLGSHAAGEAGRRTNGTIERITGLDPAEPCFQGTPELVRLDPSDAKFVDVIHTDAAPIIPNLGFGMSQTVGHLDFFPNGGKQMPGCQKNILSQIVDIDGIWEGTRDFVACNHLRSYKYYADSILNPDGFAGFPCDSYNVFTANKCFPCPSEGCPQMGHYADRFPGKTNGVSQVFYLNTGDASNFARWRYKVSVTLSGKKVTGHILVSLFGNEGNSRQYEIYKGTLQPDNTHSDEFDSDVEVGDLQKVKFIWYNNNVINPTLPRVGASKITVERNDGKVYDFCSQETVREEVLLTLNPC
# Text: 2, 2-Diphenyl-1-picrylhydrazyl (DPPH), pancreatic lipase enzyme from porcine animal, tyrosinase enzyme from mushroom plant and α-glucosidase enzyme from Saccharomyces cerevisiae fungi were purchased from the Sigma Aldrich, Japan. Arbutin and aluminum chloride (III) were obtained from Nacalai Tesque, Japan. Cetilistat was purchased from Combi-Blocks, United States of America. Acarbose and Trolox were obtained from Wako Pure Chemical Industries, Japan. Methanol was purchased from Al-Nasr Pharmaceutical Company, Egypt.
# The anti-hyperlipidemic potential of yellow flag extracts was conducted by Bitou et al. method with minor alterations. In an ELISA microplate reader, pancreatic lipase solution (50 μL at pH 7.4) in phosphate buffer (100 μg/mL, 0.2 M) was added together with 50 μL of I. pseudacorus extract at a concentration ranging from 1.56 to 100 μg/mL. After 10 min of incubation at 25 °C. […] The quantity of 4-methylumbelliferone liberated by the lipase enzyme was measured fluorometrically using a spectrophotometer at 355 nm excitation wavelength and 460 nm emission wavelength. […] The percentage of lipase inhibition was calculated using the following equation: [1- As/Ac ]*100], where As and Ac symbolize I. pseudacorus extract and […] absorbances. […]
# DPPH and enzyme inhibitory assays were carried out in triplicates, and the values were expressed as mean ± standard deviation. […]
# [10] = compared with acarbose, ref [6]
molecule,measurement,setting,value
"C[C@@H]1O[C@@H](OC[C@H]2O[C@@H](Oc3c(-c4ccc(O)c(O)c4)oc4cc(O)cc(O)c4c3=O)[C@H](O)[C@@H](O)[C@@H]2O)[C@H](O)[C@H](O)[C@H]1O [rutin, reference compound]",protein glycation % inhibition,[1],82.50%
"O=c1c(-c2ccc(O)cc2)coc2cc(O)cc(O)c12 [Genistein (30), Genistein]",DPPH IC50,[2],1.89 ± 0.16 mg/L
same,α-glucosidase IC50,"[3]; compared with acarbose, ref [85]",40.09 ± 0.94 mg/L
Kaempferol-O-deoxyhexosyl hexoside (Kaempferol-O-rutinoside) [Compound 21],pancreatic lipase IC50,"[4]; compared to orlistat, ref [90]",1.7 ± 0.30 mg/L
"COc1c(O)cc2occ(-c3ccc(O)cc3)c(=O)c2c1O [Tectorigenin (31), Tectorigenin]",intracellular free radical scavenging and lipid peroxidation,[5],scavenged intracellular free radicals and reduced lipid peroxidation
"CCCOC(=O)c1cc(O)c(O)c(O)c1 [propyl gallate, reference compound]",antioxidant activity IC50,[6],6.72 mg/L
"O=c1cc(-c2ccc(O)cc2)oc2c([C@@H]3O[C@H](CO)[C@@H](O)[C@H](O)[C@H]3O)c(O)cc(O)c12 [Vitexin (42), Vitexin]",free radical scavenging activity IC50,[6],31.4 mg/L
same,α-glucosidase IC50,[3]; [10],4.1 mg/L
Schaftoside [Schaftoside (18)],pancreatic lipase % inhibition,"[4]; at a concentration of 250 μg/mL, ref [88]",95.5%
same,pancreatic lipase IC50,"[4]; compared with orlistat, ref [88]",130 mg/L
"COc1ccccc1-c1coc2cc(O)c(OC)c(O)c2c1=O [5,7-Dihydroxy-2',6-dimethoxyisoflavone]",α-glucosidase IC50,"[3]; compared to acarbose, ref [83]",0.321 ± 0.008 mg/L
same,protein glycation % inhibition,[1],70.41%
"COc1ccc(-c2coc3cc(O)c(OC)c(O)c3c2=O)cc1 [Irisolidone (34), Irisolidone]",antioxidant activity IC50,[6],12.62 mg/L
"Cc1c(C)c2c(c(C)c1O)CCC(C)(C(=O)O)O2 (stereo not drawn) [Trolox, reference compound]",DPPH IC50,[7],14.59 mg/L
same,free radical scavenging activity IC50,[6],17.3 mg/L
"O=c1cc(-c2ccc(O)cc2)oc2cc(O)c([C@@H]3O[C@H](CO)[C@@H](O)[C@H](O)[C@H]3O)c(O)c12 [Isovitexin (43), Isovitexin]",α-glucosidase IC50,[3]; [10],6.7 mg/L
"O=c1c(O)c(-c2ccc(O)c(O)c2)oc2cc(O)cc(O)c12 [Quercetin (38), Quercetin]",rat fat absorption,[8],remarkable decrease in rat fat absorption
CCCCCCCCCCCCCCCCOc1nc2ccc(C)cc2c(=O)o1 [Cetilistat],pIC50,[9],4.73
